Entries after “also recorded” stand apart in the source; their conditions may differ. Each block holds one molecule with its values, some of them ahead of it.
Columns and labels:
CAP channel [1] = molecular target: T1, CAP channel (Rattus norvegicus, UniProt O35433); experiment: single channel current recording with patch clamp technique, inside-out membrane patches of cultured sensory neurons; type: cell-based; conditions: for Hill coefficient: concentration-response curve of channel activation; for amplitude of the single channel currents: membrane potential of 60 mV; for relative agonistic potency (Po as percentage of Po at 0.5 μM CAP): metabolites at 10~20 μM; for generation of single channel currents (activation of CAP channel): applied to intracellular side of membrane patch, CAP 0.5 μM, 12-HPETE 2 μM
T1 construct: administered at an amount of 10˜20 μM to the membrane patches of cultured sensory neurons; endogenous in cells; host or cells: cultured sensory neurons (inside-out membrane patches)
Method: In the present invention, use was made of a single channel recording method with the aid of a patch clamp technique (Hamill et al., Pfl gers Arch 391:85-100, 1981) in order to know whether lipoxygenase metabolites activate CAP channels or receptors or not. […] Because the tests are performed in isolated membrane patches without the mediation of intracellular second messengers, lipoxygenase metabolites are believed to exert a direct action on the CAP channel.
An examination was made on the efficiency with which the various lipoxygenase metabolites activate CAP channels. To this end, a patch clamp technique was used to record the single channel current generated in the CAP channel to which various lipoxygenase metabolites were applied to measure the open probability (Po) of the CAP channel. To compare the relative potency of each metabolite, the effects of the lipoxygenase metabolites on CAP channels were measured with a reference to 0.5 μM CAP.
A single channel current recording method using a patch clamp technique (Hamill et al., supra; Oh et al., 1996a) was used to know whether the lipoxygenase metabolites directly activate the CAP channel.
Because the binding site of CAP was located on the intracellular side of the channel (Oh et al., 1996b), the metabolites were applied to the intracellular sides of cell membrane patches.
In order to compare the agonistic potencies of the various metabolites synthesized by the action of various lipoxygenases, one patch was administered with 0.5 μM of CAP and then, with various lipoxygenase metabolites. At each experiment, the open probabilities (Po) of the channel attributable to the metabolites were recorded and calculated as a percentage to the open probability obtained at 0.5 μM CAP.
All of the lipoxygenase metabolites tested were administered at an amount of 10˜20 μM to the membrane patches of cultured sensory neurons. The relative potency of the metabolites in activating the channel was depicted in FIG. 7. As apparent from this histogram, almost all of the lipoxygenase metabolites, if different in agonistic potency, activate the CAP channel.
12-HPETE was administered at various concentrations from 0.25 to 20 μM to the cell membrane patches of sensory nerve cells, in order to plot a concentration-response curve. As a result, FIG. 8a was obtained. […] Returning now to FIG. 8a, the channel activation currents obtained at each 12-HPETE concentration were calculated as relative degrees to the channel activation current obtained at 20 μM of 12-HEPETE. The relative channel degrees were plotted against the concentrations of […] 12-HPETE and the resulting plot followed the Hill equation.

[2] = tested on: sensory nerve fibers (c-fibers) of the skin; experiment: skin-nerve preparation, action potentials of cutaneous pain nerve c-fibers; parameters: species or system rats
Method: To recognize whether the excitation of BK on nerve cells is accomplished via the arachidonic acid-lipoxygenase-CAP pathway, in vivo, a measurement was made on the action potentials in the sensory nerve fibers of the rats, as shown in FIGS. 13a and 13b. particularly, pain nerves which exist in the skin were isolated, together with a overlapping area of the skin, and the action potentials were measured from the nerve filaments using skin-nerve preparation (Reeh, 1998; Steen et al., 1992, 1995) as schematically illustrated in FIG. 13a. While unit action potentials measured at the sensory nerve fibers isolated from the skin, frequencies of the action potentials induced by the administration of BK were recorded. An increase in frequency of the action potentials means excitation of the sensory nerves.
The transmission speed of nerve signals were measured and only c-fibers (non-myelinated sensory nerve fibers) were used in the BK response experiment. The reason why c-fibers are used only is that they consist mainly of pain nerve cells (Willis and Coggeshall, 1991; Yaksh, 1986).
With reference to FIG. 13b, there are illustrated the action potential behaviors of the cutaneous pain nerve in response to agonist and antagonist samples. […] In order to recognize whether the nerve excitation of BK was attributed to the opening of CAP channels, CZP was administered at a dose of 10 μM, together with BK, to the skin. […] An experiment in which BK was administered alone or in combination with CZP to the skin, was repeated 20 times with the aim of testing the influence which BK and a combination of BK and CZP had on the activation of nerve cells, and the results are summarized as shown in FIG. 13c.
When the sensory nerve fibers were excited in response to BK, inhibitors against the enzymes required for the arachidonic acid-lipoxygenase-CAP receptor pathway were used in order to identify whether the response passed through the pathway. In the histogram of FIG. 14, the bar length of each inhibitor represents % activation relative to the activation effect obtained when BK was used alone in absence of any inhibitor. For example, CZP, if added along with BK, suppressed the activation response to BK by approximately […].

[3] = tested on: cultured sensory nerve cells; experiment: whole-cell currents in cultured sensory nerve cells in response to BK; type: cell-based; conditions: CZP 10 μM; 5 μM of BK
Excerpt: When taking various experimental results previously obtained into account, it was inferred that BK has a possibility to open CAP channels through the arachidonic acid-lipoxygenase pathway. To confirm this inference, an examination was made regarding whether the currents generated in cultured sensory nerve sells in response to BK were diminished by CZP or other lipoxygenase inhibitors. If BK made CAP channel open via the arachidonic acid-lipoxygenase pathway, the current response to BK must be reduced by CZP. However, rarely did the cultured cells respond to BK.

CAP channel [4] = molecular target: T1, CAP channel; experiment: single channel current recording with patch clamp technique, inside-out membrane patches of cultured sensory neurons; type: cell-based

T1 sequence (O35433 whole entry): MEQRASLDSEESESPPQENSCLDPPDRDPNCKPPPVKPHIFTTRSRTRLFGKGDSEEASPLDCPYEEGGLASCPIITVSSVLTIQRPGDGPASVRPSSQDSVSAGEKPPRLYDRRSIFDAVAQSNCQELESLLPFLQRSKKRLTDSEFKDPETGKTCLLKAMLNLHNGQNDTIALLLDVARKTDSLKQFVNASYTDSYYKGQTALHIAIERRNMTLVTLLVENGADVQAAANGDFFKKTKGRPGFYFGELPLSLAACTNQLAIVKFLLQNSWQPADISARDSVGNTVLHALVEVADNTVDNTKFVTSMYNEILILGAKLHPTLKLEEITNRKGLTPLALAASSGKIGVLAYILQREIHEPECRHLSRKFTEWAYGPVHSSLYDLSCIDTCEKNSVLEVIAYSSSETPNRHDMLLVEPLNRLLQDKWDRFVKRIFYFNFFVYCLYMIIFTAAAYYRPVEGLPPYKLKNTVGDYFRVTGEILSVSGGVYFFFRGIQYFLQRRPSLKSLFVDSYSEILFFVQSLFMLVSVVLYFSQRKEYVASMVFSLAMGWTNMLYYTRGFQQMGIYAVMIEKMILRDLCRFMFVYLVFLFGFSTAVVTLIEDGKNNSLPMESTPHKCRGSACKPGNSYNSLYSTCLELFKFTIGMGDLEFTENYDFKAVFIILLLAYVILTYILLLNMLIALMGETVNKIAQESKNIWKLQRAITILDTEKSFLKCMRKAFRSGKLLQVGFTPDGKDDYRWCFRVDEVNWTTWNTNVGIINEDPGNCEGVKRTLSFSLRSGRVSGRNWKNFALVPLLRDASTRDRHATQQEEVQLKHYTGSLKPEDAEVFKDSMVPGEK

SMILES: CCCCC/C=C\CC(/C=C/C=C\C/C=C\CCCC(=O)O)OO (centres unmarked) [12-HPETE, 12-hydroperoxyeicosatetraenoic acid]
patches in which activation of CAP channels was detected (CAP channel [1]; 12-HPETE 2-20 μM, of the 97 patch samples tested): 88 patches | Po channel open probability (CAP channel [1]; 12-HPETE alone, increased from 0.0, n=4): 0.019±0.0002 | reversal potential (CAP channel [1]; bi-ionic system 140 mM Na+ / 140 mM K+, 2~10 μM 12-HPETE): −1.71±0.49 mV | permeability ratio of K+/Na+ (PK/PNa) (CAP channel [1]; calculated from bi-ionic system experiment): 1.1 | Hill coefficient (CAP channel [1]): 2.4 | amplitude of the single channel currents (CAP channel [1]): 2.68±0.012 pA | relative agonistic potency (Po as percentage of Po at 0.5 μM CAP) (CAP channel [1]): most potent endogenous agonist; also recorded: highest agonistic potency

Hill coefficient (CAP channel [1]): 2.4 | amplitude of the single channel currents (CAP channel [1]): 2.72±0.06 pA
SMILES: COc1cc(CNC(=O)CCCC/C=C/C(C)C)ccc1O [CAP, capsaicin]
action potentials of the nerve fibers (excitation) ([2]; administered to skin patch, BK 1 μM): largely increased action potentials | generation of single channel currents (activation of CAP channel) (CAP channel [1]): single channel current which was greatly generated

Po channel open probability (CAP channel [1]; co-existence of 10 μM of CZP and 10 μM of 12-HPETE): 0.001±0.000002
SMILES: Oc1cc2c(cc1O)CN(C(=S)NCCc1ccc(Cl)cc1)CCC2 [CZP, capsazepine]
effect on response of skin nerve to BK ([2]; CZP 10 μM together with BK): Great suppression | effect on current generated by BK [3]: reduced the current | effect on single channel currents activated by 12-HPETE (CAP channel [1]; 10 μM of CZP present): single channel currents were not observed

SMILES: COc1ccc2c(c1)c(CC(=O)O)c(C)n2C(=O)c1ccc(Cl)cc1 [INDO, indomethacin]
effect on the BK response ([2]; 2 μM indomethacin): failed to inhibit the BK response

SMILES: CC(Cc1ccc(O)c(O)c1)C(C)Cc1ccc(O)c(O)c1 (centres unmarked) [NDGA, nordihydroguaiaretic acid]
lowering of the activation of BK ([2]; 50 μM of NDGA, relative to BK alone): 70% | effect on single channel current generated by arachidonic acid (CAP channel [4]; NDGA administered together with arachidonic acid): reversibly controlled depending on the presence or absence of NDGA

generation of single channel currents (activation of CAP channel) (CAP channel [1]): no channel currents were generated
SMILES: CCCCC[C@H](O)/C=C/[C@H]1C(=O)C[C@H](O)[C@@H]1C/C=C\CCCC(=O)O [PGD2]

generation of single channel currents (activation of CAP channel) (CAP channel [1]): no channel currents were generated
SMILES: CCCCC[C@H](O)/C=C/[C@H]1[C@H](O)CC(=O)[C@@H]1C/C=C\CCCC(=O)O [PGE2, prostaglandin E2]

generation of single channel currents (activation of CAP channel) (CAP channel [1]): no channel currents were generated
SMILES: CCCCC[C@H](O)/C=C/[C@@H]1[C@H]2C/C(=C/CCCC(=O)O)O[C@H]2C[C@H]1O [PGI2]

SMILES: CCN(CC)CCCC(C)Nc1c2ccc(Cl)cc2nc2ccc(OC)cc12 (centres unmarked) [QN, Quinacrine]
suppressive effect on the activation response to BK ([2]; relative to BK alone): 70%

experiments in which channel currents were weakly induced (CAP channel [4]; arachidonic acid 10 to 50 μM): 54% | experiments in which the CAP channels were not activated (CAP channel [4]; arachidonic acid 10 to 50 μM): approximately 46% | trials in which the CAP channels were not activated (CAP channel [4]; arachidonic acid 10 to 50 μM, of 69 trials): 32 trials
SMILES: CCCCC/C=C\C/C=C\C/C=C\C/C=C\CCCC(=O)O [arachidonic acid]

relative agonistic potency (Po as percentage of Po at 0.5 μM CAP) (CAP channel [1]): poor in the activation potency
SMILES: CCCCC/C=C\C[C@@H](O)/C=C/C=C/C=C\[C@@H](O)CCCC(=O)O [leukotriene B4]
